“And” between values parts separate entries of the source, which are not always exact repeats. Identical values can stand only once.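 Values below derive from 48-hour exposures of cells grown in 96-well plates, with endpoints linearly interpolated between the two concentrations bracketing the appropriate inhibition level. GI50 = concentration required for 50% inhibition of growth. TGI: concentration producing complete growth inhibition.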
Key:
Assay in all cases: NCI anticancer screen, dose series, 48 h
HL-60(TB) leukemia = system: HL-60(TB) leukemia
CCRF-CEM leukemia = system: CCRF-CEM leukemia
SK-MEL-5 melanoma = system: SK-MEL-5 melanoma
HCT-15 colon = system: HCT-15 colon
A498 renal = system: A498 renal
NCI-H460 lung = system: NCI-H460 lung
A549 NSCLC = system: A549 NSCLC
SF-539 CNS = system: SF-539 CNS
SNB-19 CNS = system: SNB-19 CNS
UO-31 renal = system: UO-31 renal

Compound | GI50 (HL-60(TB) leukemia) [µM] | TGI (HL-60(TB) leukemia) | GI50 (CCRF-CEM leukemia) [µM] | TGI (CCRF-CEM leukemia) | GI50 (SK-MEL-5 melanoma) [µM] | TGI (SK-MEL-5 melanoma) [µM] | GI50 (HCT-15 colon) | TGI (HCT-15 colon) [µM] | GI50 (A498 renal) [µM] | TGI (A498 renal) [µM] | GI50 (NCI-H460 lung) [µM] | TGI (NCI-H460 lung) | GI50 (A549 NSCLC) [µM] | TGI (A549 NSCLC) [µM] | GI50 (SF-539 CNS) [µM] | TGI (SF-539 CNS) [µM] | GI50 (SNB-19 CNS) [µM] | TGI (SNB-19 CNS) [µM] | GI50 (UO-31 renal) [µM] | TGI (UO-31 renal) [µM]
c1ccc(Oc2ccc(Nc3ncc(-c4ccccc4)o3)cc2)cc1 | > 25 | > 25 µM | > 25 | > 25 µM | > 25 | > 25 | > 25 µM | > 25 | > 25 | > 25 | > 25 | > 25 µM | > 25 | > 25 | > 25 | > 25 | > 25 | > 25 | > 25 | > 25
CS(=O)(=O)c1cccc(Nc2ncc3cc(-c4ccccc4Cl)ccc3n2)c1 | 1.36 | > 33.3 µM | 1.47 | > 33.3 µM | 1.08 | 4.04 | 0.821 µM | > 33.3 | 1.75 | 12.1 | 1.22 | 25.8 µM | 1.78 | > 33.3 | 0.94 | 25.5 | 2.46 | > 33.3 | 0.803 | 6.41
Nc1ncc(-c2ccc3ncnc(N4CCc5ccc(Cl)cc54)c3c2)cc1C(F)(F)F | 0.723 | > 100 µM | 3.87 | > 100 µM | 5.08 | 28.8 | 1.3 µM | 22.6 | 0.301 | 2.52 | 1.02 | 13.7 µM | 1.29 | 14 | 1.61 | 10.4 | 2.63 | 23.7 | 0.254 | 4.62
O=C(Nc1ccccc1)OC1OC(COC(=O)c2ccccc2)C(OC(=O)c2ccccc2)C1OS(=O)(=O)c1ccc([N+](=O)[O-])cc1 (stereo not given) | – | > 100 µM | – | > 100 µM | – | > 100 | – | > 100 | – | > 100 | – | > 100 µM | – | > 100 | – | > 100 | – | > 100 | – | > 100
COc1ccc(/C=C/C(=O)c2c(-c3ccccc3)nn(C)c(=O)c2N2CCOCC2)cc1 | – | 60.6 µM | – | > 100 µM | – | > 100 | – | > 100 | – | > 100 | – | > 100 µM | – | > 100 | – | > 100 | – | > 100 | – | > 100
OC1CCCC2CCC[N-]C12.OC1CCCC2CCC[N-]C12.[O]=[V][OH] (stereo not given) | 2.61 | 8.4 µM | 0.493 | 12.2 µM | 5.57 | 46.2 | 0.789 µM | 12.5 | 11.6 | 97.5 | 5.49 | > 100 µM | 5.23 | > 100 | 15.8 | > 100 | 53.1 | > 100 | 2.13 | 9.29
O=C1Cc2cc(CCn3cncn3)c(Cl)cc2N1 | > 100 | > 100 µM | 3.5 | > 100 µM | 10.1 | > 100 | 9.59 µM | > 100 | 32.5 | > 100 | 68.6 | > 100 µM | 16.5 | > 100 | > 100 | > 100 | 70.7 | > 100 | > 100 | > 100
O=C(Nc1cc(Cl)ccc1O)c1cccc(Nc2ccnc(C(F)(F)F)c2)c1 | 0.935 | 4.03 µM | 1.93 | 6.8 µM | 1.3 | 3.83 | 2.61 µM | 42.1 | 3.28 | 13.4 | 1.95 | 13.2 µM | 2.94 | 66 | 2.07 | 15 | 2.42 | 13.8 | 2.3 | 11.3
COc1ccc2c(O)c(/C=C3\N=Nc4ncccc43)oc2c1C[C@@H]1CCNC[C@H]1F | 0.314 | 1.14 µM | 0.141 | 0.993 µM | 0.869 | 8.35 | 0.234 µM | 1.87 | 1.39 | 3.66 | 0.617 | 2.05 µM | 1.31 | 3.93 | 0.428 | 1.99 | 0.541 | 7.59 | 1.61 | 5.18
CNC(=O)c1c(F)cccc1Nc1nc(Nc2cc3c(cc2OC)CCN3C(=O)CN(C)C)nc2[nH]ccc12 | 0.364 | 18.2 µM | 2.1 | 5.73 µM | 5.67 | 23.1 | 3.08 µM | 19 | > 39.6 | > 58.7 | 6.2 | 30.1 µM | 1.74 | 14.4 | 4.94 | 10.3 | 7.04 | > 62.8 | 3.85 | 12.2
N#C/C(=C1\OC(=N)C(c2ccccc2)C1=O)c1ccccc1 (stereo not given) | – | 54.4 µM | – | 48.6 µM | – | > 64.2 | – | 60.2 | – | > 100 | – | > 100 µM | – | > 100 | – | > 31.6 | – | > 100 | – | 42.8
O=C1NC2(CCCCC2)C(=O)N1CCN(CCCl)CCCl | 11.8 | 25 µM and 183 µM | 12.2 | 25 µM and 212 µM | > 25 | > 250 | > 25 µM and 200 µM | > 242 | > 25 | > 250 | 15.7 | 25 µM and 249 µM | > 25 | > 250 | > 25 | > 250 | > 25 | > 250 | > 25 | > 250
Cc1nc2sc3c(N)ncnc3c2c(C)c1C | > 25 | > 25 µM | > 25 | > 25 µM | > 25 | > 25 | > 25 µM | > 25 | > 25 | > 25 | > 25 | > 25 µM | > 25 | > 25 | > 25 | > 25 | > 25 | > 25 | > 25 | > 25

Reference: PubChem BioAssay (NCI)
